Laboratory results reported in patent US12122774B2, “Compounds as MYT1 inhibitors” (WIGEN BIOMEDICINE TECHNOLOGY (SHANGHAI) CO., LTD., priority 2022, dated 2024).
≈ marks a conversion by molar mass, not a printed value. Each block holds one molecule with its values, some of them ahead of it.

Legend:
Recombinant MYT1 protein = target: T1, Recombinant MYT1 protein (Homo sapiens, UniProt Q99640); assay: In vitro assay for inhibiting MYT1 kinase activity (ADP-GLO); assay type: biochemical; settings: 10 μM ATP, read-out: Inhibitory activity against recombinant protein MYT1 IC50
T1 sequence (Q99640 1-499): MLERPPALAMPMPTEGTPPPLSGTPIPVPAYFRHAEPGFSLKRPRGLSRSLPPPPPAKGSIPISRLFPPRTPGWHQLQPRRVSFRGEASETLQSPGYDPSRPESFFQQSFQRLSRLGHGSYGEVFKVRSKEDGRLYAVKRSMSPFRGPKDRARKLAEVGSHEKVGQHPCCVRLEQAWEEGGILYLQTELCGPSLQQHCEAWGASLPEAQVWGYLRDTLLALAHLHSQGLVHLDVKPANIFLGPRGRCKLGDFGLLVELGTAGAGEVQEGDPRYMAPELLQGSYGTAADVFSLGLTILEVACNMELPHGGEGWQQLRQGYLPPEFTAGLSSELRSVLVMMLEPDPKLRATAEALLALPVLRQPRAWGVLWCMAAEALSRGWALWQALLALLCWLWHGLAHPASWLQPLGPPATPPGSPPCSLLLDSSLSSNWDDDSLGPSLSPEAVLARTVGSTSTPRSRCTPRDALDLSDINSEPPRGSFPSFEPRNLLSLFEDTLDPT
Experimental: Recombinant MYT1 protein and the compounds were pre-incubated at room temperature for 15 min, and 10 μM ATP was then added to start the reaction. The mixture was incubated at room temperature for another 60 min, and the ADP-GLO reagent from Promega was then added. The resulting mixture was incubated in the dark for 40 min, a detection solution was then added, and the mixture was incubated for another 45-60 min. The chemiluminescence was determined using ENVISION. The inhibition rate and IC50 were calculated compared to the DMSO group.

MIA PaCa-2 cells = assay: In vitro anti-proliferative activity against MIA PaCa-2 cells (compound alone); assay type: cell-based; settings: intracellular ATP content
Experimental: MIA PaCa-2 cells were seeded on a 384-well plate at 3000 cells/well. After overnight adherence culture, DMSO or the compounds serially diluted 1:5 from 10 µM were added. The viability was assessed 72 h after dosing by measuring the intracellular ATP content. The inhibition percentage of viable cells by the compounds was calculated by comparing with the DMSO group, and the IC50 value was calculated.

[1] = tested on: MDCK cells stably transduced with MDR1 (MDCK-MDR1); assay: In vitro permeability experiment, MDCK-MDR1; settings: 5 μM, 90 min
Experimental: (§1) In vitro passive permeability or the ability to serve as a P-glycoprotein (P-gp) transport substrate was tested using MDCK cells (MDCK wild type) or MDCK cells stably transduced with MDR1 (MDCK-MDR1), respectively. The permeability experiment was performed in duplicate in a transwell system at a single concentration (5 μM). The cells were incubated for 90 min. Apical-to-basolateral (A to B, A-B) transport and basolateral-to-apical (B to A, B-A) transport of the corresponding compound were determined, and the permeation rate (apparent permeability) (Papp×10^−6 cm/sec) and efflux ratio (Papp (B-A)/Papp (A-B)) of the test compound were calculated.

[2] = tested on: MDCK cells (MDCK wild type); assay: In vitro permeability experiment, MDCK wild type; settings: MDCK-Wild type, 5 μM, 90 min
Experimental: as §1

[3] = In vivo pharmacokinetic experiment; set-up: species or system CD-1 female mice; settings: mice, oral administration 10 mg/kg
Experimental: CD-1 female mice aged 7 to 10 weeks were intravenously administered and orally administered at a dose of 2 mg/kg and 10 mg/kg, respectively. The mice were fasted for at least 12 h before the administration and given food 4 h after the administration, and they were given ad libitum access to water during the experiment. On the day of the experiment, animals in the intravenous group were administered the corresponding compound by single injection via the tail vein at an administration volume of 10 mL/kg. Animals in the oral group were administered the corresponding compound by single intragastric injection at an administration volume of 10 mL/kg. The animals were weighed before administration, and the administration volume was calculated according to the body weight. The sample collection time was 0.083 h (injection group), 0.167 h, 0.5 h, 1 h, 2 h, 4 h, 8 h, and 24 h. About 200 μL of whole blood was collected through the submaxillary venous plexus at each time point and used to prepare plasma for concentration determination by high-performance liquid chromatography-tandem mass spectrometry (LC-MS/MS). All animals were euthanized with CO2 anesthesia after the PK samples were collected at the last time point. The plasma concentrations were processed using a non-compartmental model of Phoenix WinNonlin™ version 8.3 (Certara) pharmacokinetic software, and the pharmacokinetic parameters were calculated using a linear-log trapezoidal method.

[4] = In vitro stability experiment (HPLC purity of filtrate); assay type: physicochemical
Experimental: (§2) Preparation of a standard curve: 10.01 mg of sample was weighed out and placed in a volumetric flask, and the volume was brought to 10 mL with acetonitrile/water (v/v, 9/1) to prepare 1.001 mg/mL of standard solution; the standard solution was then serially diluted to 0.5005 mg/mL, 0.1001 mg/mL, 0.05005 mg/mL, 0.01001 mg/mL, and 0.001001 mg/mL to generate the standard curve, and a linear equation was fitted by taking the peak area of the sample as a vertical axis and the concentration as a horizontal axis. Solubility and stability test: 15 mg of sample was added to 3 mL of vehicle (FaSSIF, FeSSIF, SGF, or water) to prepare a corresponding suspension at a target concentration of 5 mg/mL. The prepared suspension was stirred on a shaker (800 rpm) at 37° C. for 0.5 h, and the suspension was then filtered. The filtrate was diluted with a diluent to a corresponding multiple so that the peak height could not exceed the standard curve, and the solubility and purity were detected using HPLC.

[5] = In vitro solubility experiment; assay type: physicochemical; settings: thermodynamic from solid
Experimental: as §2

[6] = FaSSIF, initial pH 6.52, 37° C.
[7] = FeSSIF, initial pH 4.98, 37° C.

SMILES: Cc1cc2c(C(N)=O)c(N)n(-c3c(C)cc4c(c3C)NCC4)c2nc1C [Compound 150]
IC50 (MIA PaCa-2 cells; Homo sapiens, MIA PaCa-2, 72 h): > 10 µM

SMILES: Cc1cc2c(C(N)=O)c(N)n(-c3c(C)cc4cc[nH]c4c3C)c2nc1C [Compound 153]
IC50 (MIA PaCa-2 cells; Homo sapiens, MIA PaCa-2, 72 h): > 10 µM

SMILES: COCCc1ccc(OCC(O)CNC(C)C)cc1 (stereo not drawn) [Metoprolol, reference compound]
Papp Mean ([1]; MDCK-MDR1, A-B): 36.96 10^−6 cm · s^−1
Papp Sample - 01 ([1]; MDCK-MDR1, A-B): 37.59 10^−6 cm · s^−1
Papp Sample - 02 ([1]; MDCK-MDR1, A-B): 36.32 10^−6 cm · s^−1
Papp Mean ([1]; MDCK-MDR1, B-A): 20.14 10^−6 cm · s^−1
Papp Sample - 01 ([1]; MDCK-MDR1, B-A): 20.11 10^−6 cm · s^−1
Papp Sample - 02 ([1]; MDCK-MDR1, B-A): 20.17 10^−6 cm · s^−1
Papp Mean ([2]; A-B): 24.34 10^−6 cm · s^−1
Papp Sample - 01 ([2]; A-B): 26.48 10^−6 cm · s^−1
Papp Sample - 02 ([2]; A-B): 22.20 10^−6 cm · s^−1
Papp Mean ([2]; B-A): 21.29 10^−6 cm · s^−1
Papp Sample - 01 ([2]; B-A): 18.61 10^−6 cm · s^−1
Papp Sample - 02 ([2]; B-A): 23.97 10^−6 cm · s^−1

Now from value to molecule:

IC50 (Recombinant MYT1 protein): 200 to 500 nM
SMILES: Cc1cc2c(C(N)=O)c(N)n(-c3c(C)c(O)cc4ccccc34)c2nc1C [Compound 128]

IC50 (MIA PaCa-2 cells; 72 h): > 10 µM
SMILES: Cc1cc2c(C(N)=O)c(N)n(-c3c(C)cc4c(c3C)NCC4)c2nc1C [Compound 151]

half-life ([3]; female, CD-1, mouse, plasma): 94.8 min
F % [3]: 54.7%
HPLC purity 0.5 h [4, 6]: 58.88 %, 220 nm
HPLC purity 0.5 h [4, 7]: 74.51 %, 220 nm
HPLC purity 0.5 h ([4]; SGF, initial pH 1.2, 37° C.): 98.18 %, 220 nm
HPLC purity 0.5 h ([4]; Water, initial pH 7.7, 37° C.): 40.92 %, 220 nm
solubility at 0.5 h ([5]; simulated gastric fluid, SGF, initial pH 1.2, 37° C.): 3860 µg/mL (≈ 11900 µM)
solubility at 0.5 h [5, 6]: 49 µg/mL (≈ 151 µM)
solubility at 0.5 h [5, 7]: 182 µg/mL (≈ 561 µM)
solubility at 0.5 h ([5]; Water, initial pH 7.7, 37° C.): 13 µg/mL (≈ 40.1 µM)
IC50 (MIA PaCa-2 cells; Homo sapiens, MIA PaCa-2, 72 h): 9.22 µM
SMILES: Cc1cc2c(C(N)=O)c(N)n(-c3c(C)ccc(O)c3C)c2nc1C [RP-6306, reference compound]
